Counter-ions that a name gives are not always drawn.

Data set [1] deals with ovariectomized rats. In words: Effects on climacteric syndrome (hot flash-like symptom): tail skin temperature of ovariectomized rats. Format: in vivo, rat. To be noted: for Effect on the action of β-estradiol on the tissues involved in the hot flash-like symptom: combined use, summary of Table 3; for Effect on hot flash-like symptom: summary of Table 2. The procedure:
The effect of the compound of the present invention on climacteric syndrome was investigated using ovariectomized rats. The ovariectomized rats were prepared by removing the ovary on the both sides from 8-week-old Jcl:SD female rats (manufactured by CLEA Japan, Inc.) under ether anesthesia. The rats were bred under the conditions of illumination for 12 hours (6:00-18:00) every day, room temperature 24±0.5° C., and were allowed free intake of solid feed (CE-2, manufactured by CLEA Japan, Inc.) and water. The rats after 2 weeks of ovariectomy were subjected to the following experiment. The rats to be used for sham surgery group were treated in the same manner except ovariectomy.
The rats after 2 weeks of ovariectomy and sham surgery were subjected to the measurement of tail skin temperature by reference to the method of Hosono et al. (Am. J. Physiol. Regulatory Integrative Comp. Physiol. 280: R1341-R1347, 2001) without anesthesia. To be specific, a temperature sensor (SXK-67, manufactured by TAKARA THERMISTOR) was fixed at 5 cm from the base of the tail of the rats with an adhesive plaster (manufactured by NICHIBAN), and covered with an aluminum plate. The other end of the temperature sensor was connected to a fluclet (manufactured by DAINIPPON PHARMACEUTICAL CO., LTD.) via an amplifier (E332, manufactured by TAKARA THERMISTOR) and measurement and analysis were performed for 2 hr. The results are shown in Table 1, wherein an incidence of a hot flash-like symptom was confirmed at the tail of the ovariectomized rats.
A test compound was dissolved in a solvent (10% aqueous cyclodextrin solution), and orally administered to ovariectomized rats once a day for two consecutive weeks. The tail skin temperature was measured in the same manner as in the aforementioned method on the day of the final administration.

For data set [2], the system named is ovariectomized rats. The experiment in a line: Effect on decreased femur bone density of ovariectomized rat (pQCT). The data set is classed as in vivo. Particulars: for Bone density: femural metaphysis, oral once a day for 4 weeks; for Effect on decrease in the bone density due to ovariectomy: summary of Table 5(1) and 5(2). From the text: The ovary on the both sides of 13-week-old Jcl:SD female rats (manufactured by CLEA Japan, Inc.) were removed under ether anesthesia or the rats were subjected to a sham surgery, and a test compound dissolved in 10% aqueous cyclodextrin solution was orally administrated from the next day once a day for 4 consecutive weeks (10 rats/group). The rats were sacrificed by hemorrhage on the next day of the final administration and the left femur was removed. The bone density of the femural metaphysis was measured using pQCT [peripheral Quantitative Computed Tomography, XCT-960A, manufactured by Norland-Stratec].

Data set [3] deals with ovariectomized rats. In words: Luteinizing hormone (LH) level in serum of ovariectomized rats. The data set is classed as in vivo. Particulars: ovariectomized rat; for Serum LH: oral once a day for two weeks. The procedure:
(§1) A test compound was dissolved in 10% aqueous cyclodextrin solution and orally administered to ovariectomized rats once a day for two consecutive weeks. The blood was drawn under ether anesthesia. The blood sample was allowed to coagulate at room temperature for 1 hr and centrifuged at 3000 rpm for 10 min to give serum. The amount of LH in serum was measured using a rat LH radioimmunoassay kit (manufactured by Immunotec Research Ltd., France).

In a further data set the test system is Jcl:SD male rats. In words: Effect on serum cholesterol level in rat. The data set is classed as in vivo. To be noted: for Blood cholesterol: oral once a day for 4 days; for Blood cholesterol lowering action: summary of Table 6(1) and 6(2). As to the method:
A test compound was dissolved in 10% aqueous cyclodextrin solution, and orally administrated to 7-week-old Jcl:SD male rats (manufactured by CLEA Japan, Inc.) once a day for 4 consecutive days. The blood was drawn on the next day of the final administration, and plasma cholesterol was measured using a measurement kit (cholesterol CII-testwako, manufactured by Wako Pure Chemical Industries, Ltd.).

The test system of data set [4] is ovariectomized rats. In words: Uterus weight of ovariectomized rat (side effects). Particulars: for Uterus weight: ovariectomized rat. Format: in vivo. As to the method: as §1
To investigate the side effects of the compound of the present invention, the test compound was orally administered consecutively to ovariectomized rats and sham surgery rats in the same manner as in Experimental Example 1b, the uterus was removed and weighed.

The mark [5] stands for this setting: Table 2, oral once a day for two weeks, dose 0.1 mg/kg.
Setting [6] is: Table 2, oral once a day for two weeks, dose 1.0 mg/kg.
Where [7] appears, read: Table 2, oral once a day for two weeks, dose 10.0 mg/kg.
Setting [8] is: Table 7, oral once a day for two weeks, dose 1.0 mg/kg.

For `Cl.Oc1ccc2c(c1)CC[C@@]21C[C@@H](c2ccc(OCCN3CCCCC3)cc2)c2cc(O)ccc21` (relative stereo) [Example 36A, (1R*,3S*)-3-[4-(2-piperidinoethoxy)phenyl]-1,1′-spirobiindan-5,5′-diol hydrochloride], the results for the “Average tail skin temperature” value with ovariectomized rats [1] (setting [5]), with ovariectomized rats [1] (setting [6]) and with ovariectomized rats [1] (setting [7]) were 29.9 ± 0.4 °C, 29.4 ± 0.4 °C and 29.0 ± 0.4 °C, respectively. In the data set with ovariectomized rats [1], the “Effect on the action of β-estradiol on the tissues involved in the hot flash-like symptom” value is listed as “did not inhibit the action of β-estradiol”. For the same compound, in the data set with ovariectomized rats [1], the “Effect on hot flash-like symptom” value is “improved the hot flash-like symptom”.

Take `Cl.Oc1ccc2c(c1)CCC21C=C(c2ccc(OCCN3CCCCC3)cc2)c2cc(O)ccc21` (single isomer, unassigned; (+)) [Example 37, (+)-3-[4-(2-piperidinoethoxy)phenyl]spiro[indene-1,1′-indan]-5,5′-diol hydrochloride]: the Bone density in the data set with ovariectomized rats [2] (Table 5(2), dose 0.01 mg/kg) was 551 ± 10 mg/mL; in the data set on ovariectomized rats [2] (Table 5(2), dose 0.1 mg/kg), 620 ± 15 mg/mL; in the data set on ovariectomized rats [2] (Table 5(2), dose 1.0 mg/kg), 658 ± 17 mg/mL. Further, in the data set on ovariectomized rats [2], the “Effect on decrease in the bone density due to ovariectomy” value is recorded as “significantly suppressed the decrease in the bone density”.

Turning to `Oc1ccc2c(c1)CCC21C=C(c2ccc(OCCN3CCCCC3)cc2)c2cc(O)ccc21` (stereo not shown) [Example 1, 3-[4-(2-piperidinoethoxy)phenyl]spiro[indene-1,1′-indan]-5,5′-diol hydrochloride], the entries for the “Average tail skin temperature” value in the data set with ovariectomized rats [1] (setting [5]), in the data set on ovariectomized rats [1] (setting [6]) and with ovariectomized rats [1] (setting [7]) were 29.4 ± 0.3 °C, 28.9 ± 0.4 °C and 28.0 ± 0.5 °C, respectively. Further, the “Effect on the action of β-estradiol on the tissues involved in the hot flash-like symptom” value in the data set on ovariectomized rats [1] is recorded as “did not inhibit the action of β-estradiol”. In addition, the “Effect on hot flash-like symptom” value with ovariectomized rats [1] is “improved the hot flash-like symptom”. In addition, in the data set with ovariectomized rats [3] (dose 1.0 mg/kg), the “Serum LH” value was determined as 10.1 ± 0.60 ng/mL. For the same compound, the “Effect on increase in the LH amount due to ovariectomy” value with ovariectomized rats [3] (summary of Table 4) was “significantly suppressed increase in the LH amount”. In the data set with ovariectomized rats [2] (Table 5(1), dose 1.0 mg/kg), this compound came in with a Bone density of 738.0 ± 47.9 mg/mL. Further, the “Effect on decrease in the bone density due to ovariectomy” value with ovariectomized rats [2] is recorded as “significantly suppressed the decrease in the bone density”. The Blood cholesterol is 63.1 ± 4.8 mg/dL in the data set with Jcl:SD male rats (Table 6(1), dose 0.03 mg/kg); 53.8 ± 7.3 mg/dL in the data set with Jcl:SD male rats (Table 6(1), dose 0.1 mg/kg); 41.6 ± 5.2 mg/dL in the data set on Jcl:SD male rats (Table 6(1), dose 0.3 mg/kg). The “Blood cholesterol lowering action” value in the data set on Jcl:SD male rats is “significant blood cholesterol lowering action at a lower dose than β-estradiol”. In addition, the Uterus weight with ovariectomized rats [4] (setting [8]) is listed as 178.6 ± 9.3 mg. Further, the “Effect on uterus weight of ovariectomized rat” value with ovariectomized rats [4] (summary of Table 7) is listed as “does not significantly increase the uterus weight”. In the data set on ovariectomized rats [4] (summary of Table 8), the “Effect on the uterus weight increasing action of β-estradiol” value was “significantly suppressed the uterus weight increasing action of β-estradiol”.

In the data set with Jcl:SD male rats (Table 6(2), dose 1.0 mg/kg), `CC(C)CN1CCC(c2ccc(C3=CC4(CCc5cc(O)ccc54)c4ccc(O)cc43)cc2)CC1` (stereo not shown) [Example 30, 3-[4-(1-isobutyl-4-piperidinyl)phenyl]spiro[indene-1,1′-indan]-5,5′-diol hydrochloride] displayed a Blood cholesterol of 23.6 ± 2.2 mg/dL. The “Blood cholesterol lowering action” value in the data set on Jcl:SD male rats is “significant blood cholesterol lowering action at a lower dose than β-estradiol”.

`C[C@]12CC[C@@H]3c4ccc(O)cc4CC[C@H]3[C@@H]1CC[C@@H]2O` [β-estradiol, reference compound]: the “Average tail skin temperature” value turned out to be 28.4 ± 0.6 °C in the data set on ovariectomized rats [1] (Table 2, oral once a day for two weeks, dose 3.0 mg/kg); 27.7 ± 0.2 °C in the data set with ovariectomized rats [1] (setting [7]); 28.1 ± 0.6 °C in the data set with ovariectomized rats [1] (Table 3, oral once a day for two weeks, single use, dose 3.0 mg/kg). For the same compound, the “Serum LH” value in the data set on ovariectomized rats [3] (dose 3.0 mg/kg) worked out at 7.6 ± 0.97 ng/mL. Besides, the Bone density with ovariectomized rats [2] (Table 5(1), dose 1.0 mg/kg) was 767.3 ± 63.9 mg/mL. Further, the Blood cholesterol was determined as 62.7 ± 7.5 mg/dL in the data set on Jcl:SD male rats (Table 6(1), dose 0.3 mg/kg); 42.8 ± 6.1 mg/dL in the data set on Jcl:SD male rats (Table 6(1), dose 1.0 mg/kg); 25.8 ± 2.0 mg/dL with Jcl:SD male rats (Table 6(1), dose 3.0 mg/kg). Further, the Uterus weight in the data set with ovariectomized rats [4] (setting [8]) is listed as 406.3 ± 20.6 mg; in the data set on ovariectomized rats [4] (Table 8, single administration, dose 3.0 mg/kg) it was 491.7 ± 19.6 mg.

These data come from US20050256308A1, “Spiro compounds, medicinal compositions containing the same and intermediates of the compounds” (Dainippon Pharmaceutical Co., Ltd., priority 2002, published 2005).
